Measurements reported in patent US10421778B2, “Isoform-selective lysine deacetylase inhibitors” (WASHINGTON UNIVERSITY, priority 2015, dated 2019).
Marks after values point to notes of the source that are not given here. Positions of bridges follow the written chain, without caps; N, C: chain ends. Non-standard residues stand in square brackets, D forms with d. Residues, ends and D or L forms follow the SMILES beside them. *: point of attachment. GABA = NCCCC(=O)O; NHOH = ON*

What was measured:
Test in all cases: KDAC inhibition assay, Caliper EZ Reader II
Type in all cases: biochemical
recombinant human KDAC6 = biological target: T1, recombinant human KDAC6 (Homo sapiens, UniProt Q9UBN7); details: for KDAC Inhibition Activity KDAC6 (% inhibition): % inhibition at 30 μM
T1 construct: purchased BPS Bioscience
T1 sequence (Q9UBN7 1-1215): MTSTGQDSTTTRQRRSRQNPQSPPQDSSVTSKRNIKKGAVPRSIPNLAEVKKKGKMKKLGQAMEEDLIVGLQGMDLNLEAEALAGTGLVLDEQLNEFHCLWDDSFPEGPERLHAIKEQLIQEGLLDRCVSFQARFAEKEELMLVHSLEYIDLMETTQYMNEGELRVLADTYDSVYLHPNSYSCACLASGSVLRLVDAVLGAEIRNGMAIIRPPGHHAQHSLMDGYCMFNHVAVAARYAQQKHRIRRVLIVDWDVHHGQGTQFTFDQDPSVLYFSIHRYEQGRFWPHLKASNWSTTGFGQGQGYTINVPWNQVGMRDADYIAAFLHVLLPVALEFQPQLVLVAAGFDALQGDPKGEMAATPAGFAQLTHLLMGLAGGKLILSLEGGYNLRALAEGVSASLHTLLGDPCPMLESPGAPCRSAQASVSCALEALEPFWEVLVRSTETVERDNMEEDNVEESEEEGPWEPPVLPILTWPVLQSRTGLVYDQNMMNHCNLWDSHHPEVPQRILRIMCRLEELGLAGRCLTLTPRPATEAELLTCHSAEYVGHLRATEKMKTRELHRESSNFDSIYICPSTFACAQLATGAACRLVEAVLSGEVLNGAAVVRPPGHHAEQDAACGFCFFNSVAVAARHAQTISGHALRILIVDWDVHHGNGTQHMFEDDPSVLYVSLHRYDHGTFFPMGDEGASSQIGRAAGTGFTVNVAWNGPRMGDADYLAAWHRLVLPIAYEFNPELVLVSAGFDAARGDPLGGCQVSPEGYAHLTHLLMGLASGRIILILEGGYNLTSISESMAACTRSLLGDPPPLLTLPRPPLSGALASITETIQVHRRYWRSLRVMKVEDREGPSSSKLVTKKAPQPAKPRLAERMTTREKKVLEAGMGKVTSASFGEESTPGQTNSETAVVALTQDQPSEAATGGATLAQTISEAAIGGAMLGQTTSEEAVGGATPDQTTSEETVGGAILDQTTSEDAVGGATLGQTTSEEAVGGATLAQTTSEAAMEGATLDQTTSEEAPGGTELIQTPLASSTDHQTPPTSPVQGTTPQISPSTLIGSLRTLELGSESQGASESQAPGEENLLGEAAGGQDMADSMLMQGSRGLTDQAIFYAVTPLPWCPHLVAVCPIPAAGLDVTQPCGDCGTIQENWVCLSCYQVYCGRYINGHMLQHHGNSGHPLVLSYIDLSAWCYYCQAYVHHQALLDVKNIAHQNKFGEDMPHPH

recombinant human KDAC8 = biological target: T2, recombinant human KDAC8 (Homo sapiens, UniProt Q9BY41); details: for KDAC Inhibition Activity KDAC8 (% inhibition): % inhibition at 30 μM
T2 construct: purchased BPS Bioscience
T2 sequence (Q9BY41 1-377): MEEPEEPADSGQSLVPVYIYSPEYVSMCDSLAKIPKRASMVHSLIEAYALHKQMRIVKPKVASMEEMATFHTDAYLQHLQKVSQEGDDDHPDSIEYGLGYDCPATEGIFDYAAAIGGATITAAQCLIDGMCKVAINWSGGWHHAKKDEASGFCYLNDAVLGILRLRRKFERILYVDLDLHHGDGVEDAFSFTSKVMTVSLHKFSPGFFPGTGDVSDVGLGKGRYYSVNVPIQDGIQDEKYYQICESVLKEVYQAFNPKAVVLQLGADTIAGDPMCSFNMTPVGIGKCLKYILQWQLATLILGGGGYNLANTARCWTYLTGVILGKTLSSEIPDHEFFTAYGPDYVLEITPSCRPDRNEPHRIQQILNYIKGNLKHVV

recombinant human KDAC3 = biological target: T3, recombinant human KDAC3 (Homo sapiens, UniProt O15379); details: for KDAC Inhibition Activity KDAC3 (% inhibition): % inhibition at 30 μM; for IC50: 10-point dose curve from 30 μM, read-out: KDAC Inhibition Activity (IC50) KDAC3
T3 construct: purchased BPS Bioscience
T3 sequence (O15379 whole entry): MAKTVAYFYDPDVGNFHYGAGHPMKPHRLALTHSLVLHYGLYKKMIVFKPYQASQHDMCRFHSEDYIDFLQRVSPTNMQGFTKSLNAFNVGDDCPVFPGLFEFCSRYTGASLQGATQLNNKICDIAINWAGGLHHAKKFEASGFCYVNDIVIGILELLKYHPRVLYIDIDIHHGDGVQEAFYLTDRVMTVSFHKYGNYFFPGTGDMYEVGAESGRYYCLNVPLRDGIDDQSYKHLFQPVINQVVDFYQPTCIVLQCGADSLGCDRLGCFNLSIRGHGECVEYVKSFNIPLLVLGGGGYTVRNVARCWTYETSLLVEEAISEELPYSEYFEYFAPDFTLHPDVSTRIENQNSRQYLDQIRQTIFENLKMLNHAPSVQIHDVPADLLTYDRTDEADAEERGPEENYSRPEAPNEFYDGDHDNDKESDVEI
T3 sequence (Q9Y618 395-489 partner limits assumed): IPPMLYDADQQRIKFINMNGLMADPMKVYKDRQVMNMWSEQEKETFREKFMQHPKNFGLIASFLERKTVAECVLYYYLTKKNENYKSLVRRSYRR

recombinant human KDAC1 = biological target: T4, recombinant human KDAC1 (Homo sapiens, UniProt Q13547); details: for KDAC Inhibition Activity KDAC1 (% inhibition): % inhibition at 30 μM; for IC50: 10-point dose curve from 30 μM
T4 construct: purchased BPS Bioscience
T4 sequence (Q13547 whole entry): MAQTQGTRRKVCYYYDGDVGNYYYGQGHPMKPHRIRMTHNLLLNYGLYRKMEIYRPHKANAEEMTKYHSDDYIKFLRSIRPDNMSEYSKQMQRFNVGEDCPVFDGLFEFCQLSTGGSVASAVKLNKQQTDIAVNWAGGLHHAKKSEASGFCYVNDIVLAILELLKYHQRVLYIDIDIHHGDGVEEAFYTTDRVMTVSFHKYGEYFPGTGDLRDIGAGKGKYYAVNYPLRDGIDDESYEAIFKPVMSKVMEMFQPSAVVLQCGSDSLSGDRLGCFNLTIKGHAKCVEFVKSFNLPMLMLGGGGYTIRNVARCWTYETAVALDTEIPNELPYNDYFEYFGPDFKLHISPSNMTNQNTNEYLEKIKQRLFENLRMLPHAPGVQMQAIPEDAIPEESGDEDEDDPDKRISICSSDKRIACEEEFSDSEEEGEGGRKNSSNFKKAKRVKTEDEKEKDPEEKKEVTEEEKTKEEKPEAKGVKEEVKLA

Row | Molecule | KDAC Inhibition Activity KDAC6 (% inhibition) (recombinant human KDAC6) | KDAC Inhibition Activity KDAC8 (% inhibition) (recombinant human KDAC8) | KDAC Inhibition Activity KDAC3 (% inhibition) (recombinant human KDAC3) | KDAC Inhibition Activity KDAC1 (% inhibition) (recombinant human KDAC1) | other results
1 | [Cyclo-DAsp(Pro-DPro-Val)-NHCH2CH2S]2 [Compound 36b] | 4% | 2% | – | – | –
2 | Cyclo-^DAsp(^DPro-Pro-Val)-NHCH2CH2S—SCH2CH2NHP(O)(OPh) [Compound 11b] | 16% | 10% | 4% | Not active | –
3 | Cyclo-^DAsp(^DPro-Pro-Val)-NHCH2CH2CH2NH2 [Compound 16b] | 2%^a | 22%^a | 14%^a | 4.5% | –
4 | [Cyclo-Asp(Pro-^DPro-Val)-NHCH2CH2CH2S]2 [Compound 38a] | 21% | – | 10% | – | –
5 | CC(C)[C@@H]1NC(=O)[C@@H]2CCCN2C(=O)[C@H]2CCCN2C(=O)C[C@@H](C(=O)O)NC1=O [Compound 3a, Cyclo-Asp(^DPro-Pro-Val)-OH] ([dP]PVD-OH; lactam N-4) | – | – | – | – | inhibition at 30 µM (recombinant human KDAC3): 1%
6 | Cyclo-Asp(Pro-^DPro-Val)-OBn [Compound 2a] | – | 14% | – | – | –
7 | Cyclo-Asp(^DPro-Pro-Val)-NHCH2CH2CH2SH [Compound 6a] | 15-36% 26% average | 6% | 17-31% 24% average | 8% | –
8 | Cyclo-Asp(^DPro-Pro-Val)-NHCH2CH2CH2NH2 [Compound 16a] | 2%^a | 22%^a | 14%^a | Not active | –
9 | [Cyclo-Asp(^DPro-Pro-Val)-NHCH2CH2S]2 [Compound 35a] | – | – | 2% | – | –
10 | Cyclo-Asp(Pro-^DPro-Val)-NHCH2CH2CH2S(═O)2CH3 [Compound 21a] | Not active | 23% | Not active | Not active | –
11 | Cyclo-^DAsp(Pro-^DPro-Val)-NHCH2CH2CH2COOH [Compound 24b] | Not active | 38% | 9% | Not active | –
12 | Cyclo-^DAsp(^DPro-Pro-Val)-NHCH2CH2CH2COOMe [Compound 12b] | Not active | Not active | Not active | 5% | –
13 | Cyclo-Asp(^DPro-Pro-Val)-NHCH2CH2S—SCH2CH2NHP(O)(OPh) [Compound 11a] | Not active | 31% | 10% | 2.5% | –
14 | Cyclo-Asp(^DPro-Pro-Val)-NHCH2CH2CH2OH [Compound 10a] | 1% | 26% | 1% | Not active | –
15 | Cyclo-^DAsp(^DPro-Pro-Val)-NHCH2CH2CH2OH [Compound 10b] | 1% | 25% | 9% | 1% | –
16 | Nc1ccccc1NC(=O)c1ccc(-c2cn(CCc3ccsc3)nn2)cc1 [Compound T247, N-(2-Aminophenyl)-4-[1-(2-thiophen-3-ylethyl)-1H-[1,2,3]triazol-4-yl]benzamide, reference compound] | – | – | – | – | IC50 (recombinant human KDAC3): 3.94 µM; IC50 (recombinant human KDAC1): 1.11 µM
17 | Cyclo-^DAsp(Pro-^DPro-Val)-NHCH2CH2CH2CONHOH [Compound 25b] | 6% | 31% | 13% | Not active | –
18 | CC(C)[C@@H]1NC(=O)[C@H]2CCCN2C(=O)[C@@H]2CCCN2C(=O)C[C@@H](C(=O)NCCCC(=O)NO)NC1=O [Compound 25a, Cyclo-Asp(Pro-^DPro-Val)-NHCH2CH2CH2CONHOH] (P[dP]VD[GABA]-{NHOH}; lactam N-4) | – | – | – | – | inhibition at 30 µM (recombinant human KDAC3): 45%; IC50 (recombinant human KDAC3): > 30 µM; inhibition at 30 µM (recombinant human KDAC1): 25%; IC50 (recombinant human KDAC1): > 30 µM; inhibition at 30 µM (recombinant human KDAC6): 80%; inhibition at 30 µM (recombinant human KDAC8): 34%; IC50 (recombinant human KDAC8; 10-point dose curve from 30 μM): > 30 µM
19 | Cyclo-Asp(^DPro-Pro-Val)-OBn [Compound 1a] | 6% | 9% | – | – | –
20 | [Cyclo-^DAsp(Pro-^DPro-Val)-NHCH2CH2CH2S]2 [Compound 38b] | 40% | 3% | 19% | – | –
21 | [Cyclo-Asp(Pro-^DPro-Val)-NHCH2CH2S]2 [Compound 36a] | – | 2% | – | – | –
22 | [Cyclo-Asp(^DPro-Pro-Val)-NHCH2CH2CH2S]2 [Compound 37a] | 9% | 6% | – | – | –
23 | Cyclo-^DAsp(Pro-^DPro-Val)-OBn [Compound 2b] | 10% | – | 1% | 1.5% | –
24 | CC(C)[C@@H]1NC(=O)[C@@H]2CCCN2C(=O)[C@H]2CCCN2C(=O)C[C@H](C(=O)O)NC1=O [Compound 3b, Cyclo-^DAsp(^DPro-Pro-Val)-OH] ([dP]PV[dD]-OH; lactam N-4) | – | – | – | – | inhibition at 30 µM (recombinant human KDAC3): 3%; inhibition at 30 µM (recombinant human KDAC1): 2.5%
25 | Cyclo-DAsp(Pro-DPro-Val)-OH [Compound 4b] | 10% | 4% | 5% | – | –
26 | [Cyclo-^DAsp(^DPro-Pro-Val)-NHCH2CH2S]2 [Compound 35b] | 6% | 9% | – | – | –
27 | [Cyclo-^DAsp(^DPro-Pro-Val)-NHCH2CH2CH2S]2 [Compound 37b] | 8% | – | 53% | 1% | –
28 | Cyclo-Asp(Pro-^DPro-Val)-OH [Compound 4a] | – | – | 24% | – | –
